Results taken from patent US9126976B2 (Merck Sharp & Dohme Corp., priority 2011, dated 2015).

Experiments:
[1] = molecular target: T1, CETP (Homo sapiens (Human), UniProt P11597); assay: RTA assay, CETP-catalyzed CE and TG transfer, recombinant CETP (2% human serum); assay type: biochemical
Protocol: (§1) In Vitro Radioactive Assays of CETP-Catalyzed CE and TG Transfer (RTA Assay)
(§2) Reagents and sources are: [3H] cholesteryl oleate (GE #TRK.886), [3H] Triolein (Perkin-Elmer NET-431), Butylated hydroxyl toluene (Aldrich, #D4740-4), DOPC (Sigma, # P6354), Sodium Bromide (Fisher scientific #S255-500), PEG 8000 (Fisher, #BP233-1), and human HDL (Intracel Corp #RP-036).
(§3) An in vitro assay for determining IC50's to identify compounds that inhibit CETP transfer activity is performed based on a modification of a published method (Morton and Zilversmit, (1981) A plasma inhibitor of triglyceride and cholesteryl ester transfer activities, J. Biol. Chem. 256(23), 11992-11995). The ability of inhibitors to alter CETP activity is performed using two different assays: one using recombinant CETP and one using an endogenous plasma source of CETP. Both assays measure the transfer of [3H] cholesteryl oleate or [3H] triolein from exogenous LDL to HDL.
(§4) Radiolabeled donor particles are generated by first combining 100 μl of 200 μM butylated hydroxyl toluene in CHCl3, 216 μL of 21.57 mM DOPC in EtOH, and either 500 μCi [3H]-triolein (Perkin Elmer #NET-431) or 500 μCi [3H]-cholesteryl oleate (GE #TRK886) in a glass tube. Reagents are mixed, dried under nitrogen, and then resuspended in 2 mL of 50 mM Tris, 27 μM EDTA at pH 7.4. After a brief vortex, the solution is sonicated until clear and mixed with 20 mL of fresh human serum. The mixture is incubated overnight at 37° C. The [3H] labeled LDL substrate is separated at 1.063 g/ml density by sequential ultracentrifugal flotation in NaBr according to the method by (Havel, Eder et al. 1955; Chapman, Goldstein et al. 1981). Once isolated the particles are dialyzed 3× in CETP buffer (50 mM Tris, pH 7.4, 100 mM NaCl, 1 mM EDTA). Human HDL is purchased from Intracel and used as the acceptor particles.
(§5) Transfer assays are performed in a 96-well v-bottom polypropylene plate. For the RTA using recombinant CETP (2% RTA), an assay cocktail is prepared with the final concentrations 128 μg/mL HDL, 20 nM rCETP, 2% human serum, and 1×CETP buffer. 1 μL of each test compound diluted in DMSO is added to 47 μL of assay cocktail per well and incubated at 37° C. for 1 hour. To initiate the transfer reaction, 2 μL radiolabeled LDL is added. After an additional 60 min of incubation at 37° C., the transfer action is terminated by precipitation of LDL with an equal volume of 20% W/V PEG 8000. The plates are centrifuged at 2000 rpm for 30 minutes at 4° C. A 40 μL aliquot of the HDL-containing supernatant is transferred to a Packard Optiplate™ with 200 μL of MicroScint™ 20. After mixing, plates are counted by liquid scintillation. Counts present in the supernatant for blanks (wells containing only HDL acceptor, CETP buffer and DMSO) are subtracted from those containing test compounds and used to correct for non-specific transfer.
Comparison of the counts of samples with inhibitors to an uninhibited (DMSO only) positive control yield a percent inhibition. A plot of percent inhibition vs. log of inhibitor concentration, fit to a Sigmoidal 4 parameter equation is used to calculate IC50.
Target sequence in this assay (P11597 18-493 limits assumed): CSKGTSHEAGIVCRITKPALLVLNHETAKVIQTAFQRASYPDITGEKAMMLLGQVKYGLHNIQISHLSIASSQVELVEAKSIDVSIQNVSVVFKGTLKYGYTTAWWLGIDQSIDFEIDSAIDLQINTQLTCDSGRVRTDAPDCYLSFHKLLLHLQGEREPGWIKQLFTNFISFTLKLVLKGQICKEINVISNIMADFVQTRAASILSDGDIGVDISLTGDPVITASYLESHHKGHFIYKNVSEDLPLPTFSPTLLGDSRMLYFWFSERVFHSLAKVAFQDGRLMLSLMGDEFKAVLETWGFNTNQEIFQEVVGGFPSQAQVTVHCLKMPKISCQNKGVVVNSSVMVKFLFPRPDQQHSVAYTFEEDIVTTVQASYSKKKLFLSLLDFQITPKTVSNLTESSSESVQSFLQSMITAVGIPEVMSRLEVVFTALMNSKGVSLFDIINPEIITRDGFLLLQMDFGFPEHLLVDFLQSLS

[2] = torcetrapib and atorvastatin concomitantly compared with atorvastatin alone; cited from earlier work
[3] = molecular target: endogenous CETP from serum (Homo sapiens (Human), UniProt P11597); assay: RTA assay using endogenous CETP from serum (95% human serum); assay type: biochemical; settings: RTA in 95% human serum, Table 2
Protocol: as §1, §2, §3, §4
as §5, with “Counts present in the supernatant for blanks (wells containing only HDL acceptor, CETP buffer and DMSO) are subtracted from those containing test compounds and used to correct for non-specific transfer.” left out

[4] = cited from earlier work
[5] = molecular target: T1, CETP; assay: Scintillation Proximity Assay (SPA) for CETP activity; assay type: biochemical
Protocol: Protocol: Scintillation Proximity Assay (SPA) for CETP Activity
First, low density lipoprotein (LDL) (Meridian) was biotinylated by incubating LDL with biotin for 1 hour on ice, after which it was dialyzed to remove free biotin. Then compounds at varying concentrations were incubated with 15 nM CETP (reagent production group, In Vitro Pharmacology, MRL Rahway) and 50 ug/ml of the biotinylated LDL in 50 mM HEPES, 150 mM NaCl, pH 7.4, for 1 hour at 37° C. The reaction was started by adding 3H-cholesterol ester high density lipoprotein (HDL) (American Radiochemicals Corp) at a concentration of ˜0.6 nM. The reaction proceeded for 2 hours at 37° C., after which time it was quenched by the addition of 12% acetic acid. PVT streptavadin-coated scintillation proximity beads, which had been brought to room temperature, were then added at a concentration of 4 mg/ml. The assay was then mixed and counted after one half hour in a Microbeta plate reader.
Target sequence in this assay (P11597 18-493): as the sequence (P11597 18-493 limits assumed) above

[6] = patients, with baseline statin therapy, compared with just a statin

Sequence of endogenous CETP from serum (P11597 18-493 limits assumed): as above

CCOc1cccc(CN2C[C@@H](c3ccccc3)N(C[C@@H](O)C(F)(F)F)c3ccccc32)c1 [Example 8, (R)-3-((R)-4-(3-ethoxybenzyl)-2-phenyl-3,4-dihydroquinoxalin-1(2H)-yl)-1,1,1-trifluoropropan-2-ol]
IC50 [1]: 301 nM

O[C@H](CN1c2ccccc2N(Cc2cc(OC(F)(F)F)ccc2F)C[C@H]1c1ccccc1)C(F)(F)F [Example 5, (R)-1,1,1-trifluoro-3-((R)-4-(2-fluoro-5-(trifluoromethoxy)benzyl)-2-phenyl-3,4-dihydroquinoxalin-1(2H)-yl)-propan-2-ol]
IC50 [1]: 11 nM

CCc1cc(CN2C[C@@H](c3ccccc3)N(C[C@@H](O)C(F)(F)F)c3ccccc32)ccc1Cl [Example 6, (R)-3-((R)-4-(4-chloro-3-ethylbenzyl)-2-phenyl-3,4-dihydroquinoxalin-1(2H)-yl)-1,1,1-trifluoropropan-2-ol]
IC50 [1]: 30 nM

O[C@H](CN1c2ccccc2N(Cc2cccc(F)c2)C[C@H]1c1ccccc1)C(F)(F)F [Example 7, (R)-3-((R)-4-(3-fluorobenzyl)-2-phenyl-3,4-dihydroquinoxalin-1(2H)-yl)-1,1,1-trifluoropropan-2-ol]
IC50 [1]: 110 nM

CCOC(=O)N1c2ccc(C(F)(F)F)cc2[C@@H](N(Cc2cc(C(F)(F)F)cc(C(F)(F)F)c2)C(=O)OC)C[C@H]1CC [torcetrapib]
mortality [2]: higher incidence of mortality

O[C@H](CN1c2ccc(F)cc2N(Cc2cccc(OC(F)(F)F)c2)CC1c1cccc(OC(F)F)c1)C(F)(F)F (stereo partly drawn) [Example 58]
IC50 [3]: 16 nM

O[C@H](CN1c2ccccc2N(Cc2cccc(C(F)(F)F)c2)C[C@H]1c1ccccc1)C(F)(F)F [Example 9, (R)-3-((R)-4-(3-trifluoromethylbenzyl)-2-phenyl-3,4-dihydroquinoxalin-1(2H)-yl)-1,1,1-trifluoropropan-2-ol]
IC50 [1]: 47 nM

O[C@H](CN1c2ccccc2N(Cc2cccc(OC(F)(F)C(F)F)c2)C[C@H]1c1ccccc1)C(F)(F)F [Example 4, (R)-1,1,1-trifluoro-3-((R)-2-phenyl-4-(3-(1,1,2,2-tetrafluoroethoxy)benzyl)-3,4-dihydroquinoxalin-1(2H)-yl)-propan-2-ol]
IC50 [1]: 112 nM

O[C@@H](CN1c2ccccc2N(Cc2cccc(OC(F)(F)F)c2)C[C@H]1c1ccccc1)C(F)(F)F [Example 2, (S)-3-((R)-4-(3-trifluoromethoxy)-2-phenyl-3,4-dihydro-quinoxalin-1(2H)-yl)-1,1,1-trifluoro-propan-2-ol]
IC50 [1]: 1350 nM

O[C@H](CN1c2ccccc2N(Cc2cccc(OC(F)(F)F)c2)C[C@H]1c1ccccc1)C(F)(F)F [Example 1, (R)-3-((R)-4-(3-trifluoromethoxy)-2-phenyl-3,4-dihydroquinoxalin-1(2H)-yl)-1,1,1-trifluoropropan-2-ol]
IC50 [1]: 19 nM

COc1cc(F)c(C(C)C)cc1-c1ccc(C(F)(F)F)cc1CN1C(=O)O[C@H](c2cc(C(F)(F)F)cc(C(F)(F)F)c2)[C@@H]1C [anacetrapib]
increase in mortality ([4]; patients treated with anacetrapib): unlikely
decrease of LDL-C [4, 6]: 40%
increase of HDL-C [4, 6]: 138%

CC(C)(O)c1ccc(C2CN(Cc3cccc(OC(F)(F)F)c3)c3ccccc3N2C[C@@H](O)C(F)(F)F)cc1 (stereo partly drawn) [Example 59]
IC50 [3]: 24 nM

O[C@H](CN1c2ccccc2N(Cc2cccc(OC(F)(F)F)c2)C[C@H]1c1ccccc1)C(F)(F)F [Example 17, (R)-3-((R)-4-(3-trifluoromethoxy)-2-phenyl-3,4-dihydroquinoxalin-1(2H)-yl)-1,1,1-trifluoro-propan-2-ol]
IC50 [1]: 34 nM

O[C@H](CN1c2ccccc2N(Cc2cccc(OC(F)F)c2)CC1c1cccc(OC(F)F)c1)C(F)(F)F (stereo partly drawn) [Example 60]
IC50 [3]: 14 nM

O[C@H](CN1c2ccccc2N(Cc2cccc(OC(F)(F)F)c2)CC1c1cccc(OC(F)F)c1)C(F)(F)F (stereo partly drawn) [Example 61]
IC50 [3]: 7.5 nM

O[C@H](CN1c2ccccc2N(Cc2cccc(OC(F)(F)F)c2)C[C@H]1c1ccc(C(F)(F)F)nc1)C(F)(F)F [Example 26]
IC50 ([5]; read-out: SPA IC50): 24 nM

O[C@H](CN1c2ccccc2N(Cc2cccc(C(F)(F)F)c2)C[C@H]1c1cccc(C(F)(F)F)c1)C(F)(F)F [Example 40, (2R)-1,1,1-trifluoro-3-(4-(3-(trifluoromethyl)benzyl)-2-(3-(trifluoromethyl)phenyl)-3,4-dihydroquinoxalin-1(2H)-yl)propan-2-ol]
IC50 ([5]; Table 1, read-out: IC50): 57.1 nM

COc1ccc([C@@H]2CN(Cc3cccc(OC(F)(F)F)c3)c3ccccc3N2C[C@@H](O)C(F)(F)F)cc1 [Example 54]
IC50 ([5]; Table 1, read-out: IC50): 69 nM

Cc1ccc([C@@H]2CN(Cc3cccc(OC(F)(F)F)c3)c3ccccc3N2C[C@@H](O)C(F)(F)F)cc1 [Example 53]
IC50 ([5]; Table 1, read-out: IC50): 56 nM

O[C@H](CN1c2ccccc2N(Cc2cc(F)cc(C(F)(F)F)c2)C[C@H]1c1ccccc1)C(F)(F)F [Example 29, (R)-3-((R)-4-(3-fluoro-5-(trifluoromethyl)benzyl)-2-phenyl-3,4-dihydroquinoxalin-1(2H)-yl)-1,1,1-trifluoropropan-2-ol]
IC50 ([5]; Table 1, read-out: IC50): 105 nM

O[C@H](CN1c2ccccc2N(Cc2cc(C(F)(F)F)cc(C(F)(F)F)c2)C[C@H]1c1ccccc1)C(F)(F)F [Example 3]
IC50 [1]: 74 nM

C[C@H](c1ccccc1)N1C[C@@H](c2cccc(C(F)(F)F)c2)N(C[C@@H](O)C(F)(F)F)c2ccccc21 [Example 15]
IC50 ([5]; read-out: SPA IC50): 14 nM
